{
  "source": "PubChem BioAssay AID2060908",
  "about": "(Molecular Pharmacology Branch, DTP, NCI, 2025);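 also: spheroids exposed to compounds for 7 days before viability read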",
  "test_system": "186277-243-T-J2-PDC complex spheroids, viability",
  "experiment": "Anticancer human tumor 186277-243-T-J2-PDC patient-derived colon adenocarcinoma cell line growth inhibition [RAS]",
  "settings": "for IC50: curve of first compound; for viability, T/C: stronger effect = lower value",
  "in_short": "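Multi-cell-type spheroids: tumor cells plus HUVEC endothelial cells and mesenchymal stem cells. RAS-pathway inhibitors were combined with targeted agents, each dosed in half-log steps down from clinical Cmax, or from 10 microM when Cmax was unknown.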",
  "key": {"[1]": {"settings": "second compound 0.00316 µM, first compound 0.0316 µM"}, "[2]": {"settings": "second compound 0.00316 µM, first compound 0.1 µM"}, "[3]": {"settings": "second compound 0.00316 µM, first compound 0.316 µM"}, "[4]": {"settings": "second compound 0.00316 µM, first compound 1 µM"}, "[5]": {"settings": "second compound 0.01 µM, first compound 0.0316 µM"}, "[6]": {"settings": "second compound 0.01 µM, first compound 0.1 µM"}, "[7]": {"settings": "second compound 0.01 µM, first compound 0.316 µM"}, "[8]": {"settings": "second compound 0.01 µM, first compound 1 µM"}, "[9]": {"settings": "second compound 0.0316 µM, first compound 0.0316 µM"}, "[10]": {"settings": "second compound 0.0316 µM, first compound 0.1 µM"}, "[11]": {"settings": "second compound 0.0316 µM, first compound 0.316 µM"}, "[12]": {"settings": "second compound 0.0316 µM, first compound 1 µM"}, "[13]": {"settings": "second compound 0.1 µM, first compound 0.0316 µM"}, "[14]": {"settings": "second compound 0.1 µM, first compound 0.1 µM"}, "[15]": {"settings": "second compound 0.1 µM, first compound 0.316 µM"}, "[16]": {"settings": "second compound 0.1 µM, first compound 1 µM"}, "[17]": {"settings": "second compound 0.316 µM, first compound 0.0316 µM"}, "[18]": {"settings": "second compound 0.316 µM, first compound 0.1 µM"}, "[19]": {"settings": "second compound 0.316 µM, first compound 0.316 µM"}, "[20]": {"settings": "second compound 0.316 µM, first compound 1 µM"}, "[21]": {"settings": "second compound 1 µM, first compound 0.0316 µM"}, "[22]": {"settings": "second compound 1 µM, first compound 0.1 µM"}, "[23]": {"settings": "second compound 1 µM, first compound 0.316 µM"}, "[24]": {"settings": "second compound 1 µM, first compound 1 µM"}},
  "data": [
    {"smiles": "C=CC(=O)Nc1cc(Nc2nccc(-c3cn(C)c4ccccc34)n2)c(OC)cc1N(C)CCN(C)C", "note": "+ C=CC(=O)N1CCN(c2nc(OCC3CCCN3C)nc3c(F)c(-c4nc(N)cc(C)c4C(F)(F)F)c(Cl)cc23)C(C)C1", "values": [
      {"measurement": "IC50", "setting": "second compound 0.00316 µM", "result": "> 1000", "unit": "nM"},
      {"measurement": "IC50", "setting": "second compound 0.01 µM", "result": "> 1000", "unit": "nM"},
      {"measurement": "IC50", "setting": "second compound 0.0316 µM", "result": "> 1000", "unit": "nM"},
      {"measurement": "IC50", "setting": "second compound 0.1 µM", "result": "> 1000", "unit": "nM"},
      {"measurement": "IC50", "setting": "second compound 0.316 µM", "result": "> 1000", "unit": "nM"},
      {"measurement": "IC50", "setting": "second compound 1 µM", "result": "> 1000", "unit": "nM"},
      {"measurement": "viability, T/C", "setting": "second compound 0.00316 µM, first compound 0.00316 µM", "result": 82.3, "unit": "%"},
      {"measurement": "viability, T/C", "setting": "second compound 0.00316 µM, first compound 0.01 µM", "result": 89.4, "unit": "%"},
      {"measurement": "viability, T/C", "setting": "[1]", "result": 89.8, "unit": "%"},
      {"measurement": "viability, T/C", "setting": "[2]", "result": 80.5, "unit": "%"},
      {"measurement": "viability, T/C", "setting": "[3]", "result": 97.4, "unit": "%"},
      {"measurement": "viability, T/C", "setting": "[4]", "result": 110, "unit": "%"},
      {"measurement": "viability, T/C", "setting": "second compound 0.01 µM, first compound 0.00316 µM", "result": 96.1, "unit": "%"},
      {"measurement": "viability, T/C", "setting": "second compound 0.01 µM, first compound 0.01 µM", "result": 88.2, "unit": "%"},
      {"measurement": "viability, T/C", "setting": "[5]", "result": 89.8, "unit": "%"},
      {"measurement": "viability, T/C", "setting": "[6]", "result": 94, "unit": "%"},
      {"measurement": "viability, T/C", "setting": "[7]", "result": 107, "unit": "%"},
      {"measurement": "viability, T/C", "setting": "[8]", "result": 77.3, "unit": "%"},
      {"measurement": "viability, T/C", "setting": "second compound 0.0316 µM, first compound 0.00316 µM", "result": 84.8, "unit": "%"},
      {"measurement": "viability, T/C", "setting": "second compound 0.0316 µM, first compound 0.01 µM", "result": 91.6, "unit": "%"},
      {"measurement": "viability, T/C", "setting": "[9]", "result": 93.2, "unit": "%"},
      {"measurement": "viability, T/C", "setting": "[10]", "result": 96.1, "unit": "%"},
      {"measurement": "viability, T/C", "setting": "[11]", "result": 99.1, "unit": "%"},
      {"measurement": "viability, T/C", "setting": "[12]", "result": 97, "unit": "%"},
      {"measurement": "viability, T/C", "setting": "second compound 0.1 µM, first compound 0.00316 µM", "result": 89.6, "unit": "%"},
      {"measurement": "viability, T/C", "setting": "second compound 0.1 µM, first compound 0.01 µM", "result": 85, "unit": "%"},
      {"measurement": "viability, T/C", "setting": "[13]", "result": 79.5, "unit": "%"},
      {"measurement": "viability, T/C", "setting": "[14]", "result": 109, "unit": "%"},
      {"measurement": "viability, T/C", "setting": "[15]", "result": 126, "unit": "%"},
      {"measurement": "viability, T/C", "setting": "[16]", "result": 86.8, "unit": "%"},
      {"measurement": "viability, T/C", "setting": "second compound 0.316 µM, first compound 0.00316 µM", "result": 89.4, "unit": "%"},
      {"measurement": "viability, T/C", "setting": "second compound 0.316 µM, first compound 0.01 µM", "result": 94.3, "unit": "%"},
      {"measurement": "viability, T/C", "setting": "[17]", "result": 103, "unit": "%"},
      {"measurement": "viability, T/C", "setting": "[18]", "result": 86.5, "unit": "%"},
      {"measurement": "viability, T/C", "setting": "[19]", "result": 130, "unit": "%"},
      {"measurement": "viability, T/C", "setting": "[20]", "result": 98.9, "unit": "%"},
      {"measurement": "viability, T/C", "setting": "second compound 1 µM, first compound 0.00316 µM", "result": 109, "unit": "%"},
      {"measurement": "viability, T/C", "setting": "second compound 1 µM, first compound 0.01 µM", "result": 78.8, "unit": "%"},
      {"measurement": "viability, T/C", "setting": "[21]", "result": 91.9, "unit": "%"},
      {"measurement": "viability, T/C", "setting": "[22]", "result": 104, "unit": "%"},
      {"measurement": "viability, T/C", "setting": "[23]", "result": 82.1, "unit": "%"},
      {"measurement": "viability, T/C", "setting": "[24]", "result": 81.2, "unit": "%"}
    ]},
    {"smiles": "CC(C)NCC(C(=O)N1CCN(c2ncnc3c2C(C)CC3O)CC1)c1ccc(Cl)cc1", "note": "(centres undefined) + C=CC(=O)N1CCN(c2nc(OCC3CCCN3C)nc3c(F)c(-c4nc(N)cc(C)c4C(F)(F)F)c(Cl)cc23)C(C)C1", "values": [
      {"measurement": "IC50", "setting": "second compound 0.00316 µM", "result": 1680, "unit": "nM"},
      {"measurement": "IC50", "setting": "second compound 0.01 µM", "result": 3220, "unit": "nM"},
      {"measurement": "IC50", "setting": "second compound 0.0316 µM", "result": 2700, "unit": "nM"},
      {"measurement": "IC50", "setting": "second compound 0.1 µM", "result": 2040, "unit": "nM"},
      {"measurement": "IC50", "setting": "second compound 0.316 µM", "result": 2530, "unit": "nM"},
      {"measurement": "IC50", "setting": "second compound 1 µM", "result": 1910, "unit": "nM"},
      {"measurement": "viability, T/C", "setting": "[1]", "result": 94.2, "unit": "%"},
      {"measurement": "viability, T/C", "setting": "[2]", "result": 87, "unit": "%"},
      {"measurement": "viability, T/C", "setting": "[3]", "result": 113, "unit": "%"},
      {"measurement": "viability, T/C", "setting": "[4]", "result": 59.2, "unit": "%"},
      {"measurement": "viability, T/C", "setting": "second compound 0.00316 µM, first compound 3.16 µM", "result": 43.6, "unit": "%"},
      {"measurement": "viability, T/C", "setting": "second compound 0.00316 µM, first compound 10 µM", "result": 34, "unit": "%"},
      {"measurement": "viability, T/C", "setting": "[5]", "result": 78.7, "unit": "%"},
      {"measurement": "viability, T/C", "setting": "[6]", "result": 100, "unit": "%"},
      {"measurement": "viability, T/C", "setting": "[7]", "result": 101, "unit": "%"},
      {"measurement": "viability, T/C", "setting": "[8]", "result": 79.4, "unit": "%"},
      {"measurement": "viability, T/C", "setting": "second compound 0.01 µM, first compound 3.16 µM", "result": 51.4, "unit": "%"},
      {"measurement": "viability, T/C", "setting": "second compound 0.01 µM, first compound 10 µM", "result": 33.6, "unit": "%"},
      {"measurement": "viability, T/C", "setting": "[9]", "result": 72.3, "unit": "%"},
      {"measurement": "viability, T/C", "setting": "[10]", "result": 110, "unit": "%"},
      {"measurement": "viability, T/C", "setting": "[11]", "result": 77.1, "unit": "%"},
      {"measurement": "viability, T/C", "setting": "[12]", "result": 87.1, "unit": "%"},
      {"measurement": "viability, T/C", "setting": "second compound 0.0316 µM, first compound 3.16 µM", "result": 44.1, "unit": "%"},
      {"measurement": "viability, T/C", "setting": "second compound 0.0316 µM, first compound 10 µM", "result": 35.2, "unit": "%"},
      {"measurement": "viability, T/C", "setting": "[13]", "result": 93.2, "unit": "%"},
      {"measurement": "viability, T/C", "setting": "[14]", "result": 85.8, "unit": "%"},
      {"measurement": "viability, T/C", "setting": "[15]", "result": 103, "unit": "%"},
      {"measurement": "viability, T/C", "setting": "[16]", "result": 63.4, "unit": "%"},
      {"measurement": "viability, T/C", "setting": "second compound 0.1 µM, first compound 3.16 µM", "result": 47.6, "unit": "%"},
      {"measurement": "viability, T/C", "setting": "second compound 0.1 µM, first compound 10 µM", "result": 35.8, "unit": "%"},
      {"measurement": "viability, T/C", "setting": "[17]", "result": 91.4, "unit": "%"},
      {"measurement": "viability, T/C", "setting": "[18]", "result": 96.3, "unit": "%"},
      {"measurement": "viability, T/C", "setting": "[19]", "result": 89.1, "unit": "%"},
      {"measurement": "viability, T/C", "setting": "[20]", "result": 62.8, "unit": "%"},
      {"measurement": "viability, T/C", "setting": "second compound 0.316 µM, first compound 3.16 µM", "result": 49.9, "unit": "%"},
      {"measurement": "viability, T/C", "setting": "second compound 0.316 µM, first compound 10 µM", "result": 29.5, "unit": "%"},
      {"measurement": "viability, T/C", "setting": "[21]", "result": 107, "unit": "%"},
      {"measurement": "viability, T/C", "setting": "[22]", "result": 97.7, "unit": "%"},
      {"measurement": "viability, T/C", "setting": "[23]", "result": 87.5, "unit": "%"},
      {"measurement": "viability, T/C", "setting": "[24]", "result": 63.7, "unit": "%"},
      {"measurement": "viability, T/C", "setting": "second compound 1 µM, first compound 3.16 µM", "result": 38.9, "unit": "%"},
      {"measurement": "viability, T/C", "setting": "second compound 1 µM, first compound 10 µM", "result": 25.2, "unit": "%"}
    ]}
  ]
}
